Tested on: THP-1 cells
Experiment: Cytotoxicity of TCEP digestion media (LIVE/DEAD stain, flow cytometry)
Format: cell-based
Conditions: TCEP 0.1 mM to 100 mM, 10 minutes
Experimental: Cell death was analyzed by flow cytometry after staining using the LIVE/DEAD fixable Violet Dead Cell Stain. Multiple comparisons among groups were determined using one-way ANOVA followed by a post-hoc test. P-value: *p<0.05, **p<0.01.
The ability to induce on-demand digestion of the MNs using a reducing agent (Tris (2-carboxyethil) phosphine, TCEP) was also characterized. […] THP-1 cells were incubated with different concentrations of digestion media (TCEP solution in supplemented media), ranging from 0.1 mM to 100 mM, for 10 minutes. Thereafter, digestion media was removed, and cells were stained using the LIVE/DEAD fixable Violet Dead Cell Stain Kit (ThermoFisher Scientific, USA) following the manufacturer's guidelines. Dead cells were analyzed by flow cytometry using a BD LSRFortessa™ flow cytometer.

O=C(O)CCP(CCC(=O)O)CCC(=O)O [TCEP, tris(2-carboxyethyl)phosphine]
cell viability: did not affect cell viability
